Blank lines part the entries; values can stand above or below the compound they belong to.
Columns and labels:
Type in all cases: binding
[1] = molecular target: T1, GABBR1 (Homo sapiens, UniProt Q9UBS5); experiment: NanoBRET screen HiBiT-GABBR1 in HEK293
T1 construct: purchased Promega (in-house HiBiT-GPCR construct library, NanoBRET)
Method: (§1) Each tracer candidate was screened across the entire library of HiBiT-GPCR constructs using NanoBRET as the detection modality. As depicted in Figure 4A, the specificity of interactions was evaluated through decrease in BRET due to competitive displacement of a bound tracer by excess parental compound. Each tracer was analyzed for binding to each HiBiT-GPCR fusion in the absence and in the presence of competing parental compound. Briefly, HEK293 cells were transfected with HiBiT-GPCR constructs diluted into promoterless DNA to reduce expression and maximize translocation to the cell surface. Each tracer candidate was then screened at concentrations of 1 μM and 0.1 μM across cells expressing these fusions. Cells were treated for 1.5 h with tracer either alone or in the presence of 20 μM competing parental compound (i.e., control). BRET was measured upon addition of purified LgBiT and subsequent complementation with HiBiT genetically fused to a GPCR. The specificity of interactions was assessed through a decrease in BRET signal due to competitive displacement of the bound tracer. To further gauge the robustness of these interactions, the fold response over the control (i.e., BRETtracer/BRETcontrol) was calculated. We chose a 1.5-fold response, which translates to ≥7-fold signal over noise as the minimal threshold required to score an interaction as positive. […]. Below we highlight the screening results obtained for our exemplary fluorescent tracers based on Clozapine, Amitriptyline and AZD1283.
(§2) HiBiT-GPCR DNA constructs were diluted in 10 mM Tris pH 8 to a final concentration of 0.01 μg/μL, arrayed in 96-well plates and stored at −20 °C. For transfection, HEK293 cells were suspended in Opti-MEM (without phenol red) supplemented with 2% fetal bovine serum (Seradigm) and 100 units/mL penicillin–streptomycin (Gibco) at a final concentration of 220,000 cells/mL and dispensed into white 96-well plates at 90 μL/well. Subsequent transfections and screens were carried using an Agilent Bravo Automated Liquid Handling Platform. First, the 96-well HiBiT DNA arrays were diluted 25-fold in Opti-MEM (without serum or phenol red) to a final concentration of 0.0004 μg/μL and 20 μL of the diluted DNAs were transferred into new 96-well plates. Next, promoterless carrier DNA (1 μg/μL) was diluted 25-fold (0.04 μg/μL) and then dispensed into the diluted arrays at 20 μL/well. Following brief mixing, Viafect transfection reagent (Promega) diluted 16-fold into Opti-MEM was dispensed into the plates at 40 μL/well. After mixing by pipetting, plates were incubated for 10 min on the pipetting station deck. The DNA-transfection reagent complexes were then added to plates containing cells. To facilitate the screen, 10 μL of DNA-transfection reagent complexes were added in duplicates to the top 4 and bottom 4 rows, resulting in two identical 48-well arrays per plate. Plates with transfected cells were incubated for 18–20 h at 37 °C/5% CO2. A screen of each tracer across the entire library using two different concentrations requires duplicate plates of transfected cells. Depending on the number of tracers being screened, transfections can be scaled up using the same ratios. The next day, for each tracer, four 20× screening solutions in tracer dilution buffer (Promega) were prepared: two duplicates at final concentration of 20 μM and two duplicates at a final concentration of 2 μM. A competing unmodified compound was added to one of each duplicate at a final concentration of 400 μM. The four resulting solutions were diluted 4-fold in Opti-MEM without serum or phenol red to generate 5× solutions (5 µM and 0.5 µM tracer +/− 100 μM competing compound). To screen the library, a BioTek MultiFlo FX liquid dispenser was used to dispense 22.5 µL of tracer solution to the top 4 rows and 22.5 µL tracer + competing compound solution to the 4 bottom rows. Plates were briefly mixed on an orbital shaker and incubated for 1.5 h at room temperature. […]

[2] = molecular target: T2, HTR5A (Homo sapiens, UniProt P47898); experiment: NanoBRET screen HiBiT-HTR5A in HEK293
T2 construct: purchased Promega (in-house HiBiT-GPCR construct library, NanoBRET)
T2 sequence (P47898 whole entry): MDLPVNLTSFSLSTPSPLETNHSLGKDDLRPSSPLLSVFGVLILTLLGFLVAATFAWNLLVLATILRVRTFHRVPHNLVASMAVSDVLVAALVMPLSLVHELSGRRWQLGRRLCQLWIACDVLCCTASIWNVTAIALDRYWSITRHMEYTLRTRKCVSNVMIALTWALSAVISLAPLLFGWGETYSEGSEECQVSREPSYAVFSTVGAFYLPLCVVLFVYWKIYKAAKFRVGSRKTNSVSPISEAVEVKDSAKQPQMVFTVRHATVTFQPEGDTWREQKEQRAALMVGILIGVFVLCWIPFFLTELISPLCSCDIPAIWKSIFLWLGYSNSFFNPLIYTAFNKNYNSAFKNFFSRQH
Method: as §1, §2

[3] = molecular target: T3, MCHR1 (Homo sapiens, UniProt Q99705); experiment: NanoBRET screen HiBiT-MCHR1 in HEK293
T3 construct: purchased Promega (in-house HiBiT-GPCR construct library, NanoBRET)
T3 sequence (Q99705 whole entry): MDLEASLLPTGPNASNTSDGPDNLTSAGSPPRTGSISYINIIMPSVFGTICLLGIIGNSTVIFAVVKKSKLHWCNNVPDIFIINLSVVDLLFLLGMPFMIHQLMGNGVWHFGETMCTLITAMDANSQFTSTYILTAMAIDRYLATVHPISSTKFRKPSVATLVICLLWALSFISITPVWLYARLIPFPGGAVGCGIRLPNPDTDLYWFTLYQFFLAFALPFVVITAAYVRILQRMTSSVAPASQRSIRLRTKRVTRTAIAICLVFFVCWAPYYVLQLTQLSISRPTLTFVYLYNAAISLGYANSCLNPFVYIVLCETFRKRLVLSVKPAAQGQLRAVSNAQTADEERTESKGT
Method: as §1, §2

[4] = molecular target: T4, FZD2 (Homo sapiens, UniProt Q14332); experiment: NanoBRET screen HiBiT-FZD2 in HEK293
T4 construct: purchased Promega (in-house HiBiT-GPCR construct library, NanoBRET)
T4 sequence (Q14332 24-565): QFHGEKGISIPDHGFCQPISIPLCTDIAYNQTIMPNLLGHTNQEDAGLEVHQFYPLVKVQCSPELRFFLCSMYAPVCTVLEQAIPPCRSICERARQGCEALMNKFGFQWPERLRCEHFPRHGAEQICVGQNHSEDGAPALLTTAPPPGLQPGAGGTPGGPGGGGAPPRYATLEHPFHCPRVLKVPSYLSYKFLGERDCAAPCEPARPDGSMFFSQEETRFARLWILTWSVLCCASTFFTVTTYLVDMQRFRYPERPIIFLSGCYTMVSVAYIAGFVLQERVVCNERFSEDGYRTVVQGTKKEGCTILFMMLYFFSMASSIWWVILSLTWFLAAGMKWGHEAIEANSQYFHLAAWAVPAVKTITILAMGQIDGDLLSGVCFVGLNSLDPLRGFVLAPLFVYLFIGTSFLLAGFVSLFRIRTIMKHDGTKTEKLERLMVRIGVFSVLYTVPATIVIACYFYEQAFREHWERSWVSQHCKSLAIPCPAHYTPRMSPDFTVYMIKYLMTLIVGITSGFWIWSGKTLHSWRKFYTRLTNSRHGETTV
Method: as §1, §2

[5] = molecular target: T5, GRM1 (Homo sapiens, UniProt Q13255); experiment: NanoBRET screen HiBiT-GRM1 in HEK293; conditions: GRM1
T5 construct: purchased Promega (in-house HiBiT-GPCR construct library, NanoBRET)
T5 sequence (Q13255 19-1194): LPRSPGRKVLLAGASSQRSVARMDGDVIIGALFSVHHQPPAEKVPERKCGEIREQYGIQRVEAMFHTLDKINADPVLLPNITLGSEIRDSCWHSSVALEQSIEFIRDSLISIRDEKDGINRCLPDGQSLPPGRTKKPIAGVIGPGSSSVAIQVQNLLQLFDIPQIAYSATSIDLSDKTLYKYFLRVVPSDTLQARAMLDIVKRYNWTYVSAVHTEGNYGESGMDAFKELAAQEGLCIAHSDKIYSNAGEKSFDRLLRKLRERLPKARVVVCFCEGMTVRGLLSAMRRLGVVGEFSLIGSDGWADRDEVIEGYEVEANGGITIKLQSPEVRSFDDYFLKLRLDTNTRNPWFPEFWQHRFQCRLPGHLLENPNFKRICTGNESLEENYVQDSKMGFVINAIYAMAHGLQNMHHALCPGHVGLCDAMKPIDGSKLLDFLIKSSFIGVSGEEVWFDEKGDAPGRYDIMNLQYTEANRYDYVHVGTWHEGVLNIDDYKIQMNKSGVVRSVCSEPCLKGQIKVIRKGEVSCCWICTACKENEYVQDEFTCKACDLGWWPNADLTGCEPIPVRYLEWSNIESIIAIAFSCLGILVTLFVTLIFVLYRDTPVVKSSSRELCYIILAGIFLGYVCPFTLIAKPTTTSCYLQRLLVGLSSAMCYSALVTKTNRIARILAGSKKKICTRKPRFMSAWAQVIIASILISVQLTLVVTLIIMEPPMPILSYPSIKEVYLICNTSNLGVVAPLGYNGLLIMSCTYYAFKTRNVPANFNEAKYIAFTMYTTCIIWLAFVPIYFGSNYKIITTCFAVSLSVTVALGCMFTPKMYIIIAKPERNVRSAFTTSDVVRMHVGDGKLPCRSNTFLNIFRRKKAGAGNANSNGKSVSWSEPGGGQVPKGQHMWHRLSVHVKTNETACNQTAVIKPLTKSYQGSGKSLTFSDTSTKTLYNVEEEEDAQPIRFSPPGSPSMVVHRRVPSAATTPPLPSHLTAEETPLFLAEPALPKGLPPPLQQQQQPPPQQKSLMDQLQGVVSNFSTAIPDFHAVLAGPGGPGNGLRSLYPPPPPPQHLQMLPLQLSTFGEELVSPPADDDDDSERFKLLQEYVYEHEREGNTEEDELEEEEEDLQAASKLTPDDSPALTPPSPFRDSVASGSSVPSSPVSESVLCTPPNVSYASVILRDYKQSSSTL
Method: as §1, §2

[6] = molecular target: T6, LGR6 (Homo sapiens, UniProt Q9HBX8); experiment: NanoBRET screen HiBiT-LGR6 in HEK293
T6 construct: purchased Promega (in-house HiBiT-GPCR construct library, NanoBRET)
T6 sequence (Q9HBX8 25-967): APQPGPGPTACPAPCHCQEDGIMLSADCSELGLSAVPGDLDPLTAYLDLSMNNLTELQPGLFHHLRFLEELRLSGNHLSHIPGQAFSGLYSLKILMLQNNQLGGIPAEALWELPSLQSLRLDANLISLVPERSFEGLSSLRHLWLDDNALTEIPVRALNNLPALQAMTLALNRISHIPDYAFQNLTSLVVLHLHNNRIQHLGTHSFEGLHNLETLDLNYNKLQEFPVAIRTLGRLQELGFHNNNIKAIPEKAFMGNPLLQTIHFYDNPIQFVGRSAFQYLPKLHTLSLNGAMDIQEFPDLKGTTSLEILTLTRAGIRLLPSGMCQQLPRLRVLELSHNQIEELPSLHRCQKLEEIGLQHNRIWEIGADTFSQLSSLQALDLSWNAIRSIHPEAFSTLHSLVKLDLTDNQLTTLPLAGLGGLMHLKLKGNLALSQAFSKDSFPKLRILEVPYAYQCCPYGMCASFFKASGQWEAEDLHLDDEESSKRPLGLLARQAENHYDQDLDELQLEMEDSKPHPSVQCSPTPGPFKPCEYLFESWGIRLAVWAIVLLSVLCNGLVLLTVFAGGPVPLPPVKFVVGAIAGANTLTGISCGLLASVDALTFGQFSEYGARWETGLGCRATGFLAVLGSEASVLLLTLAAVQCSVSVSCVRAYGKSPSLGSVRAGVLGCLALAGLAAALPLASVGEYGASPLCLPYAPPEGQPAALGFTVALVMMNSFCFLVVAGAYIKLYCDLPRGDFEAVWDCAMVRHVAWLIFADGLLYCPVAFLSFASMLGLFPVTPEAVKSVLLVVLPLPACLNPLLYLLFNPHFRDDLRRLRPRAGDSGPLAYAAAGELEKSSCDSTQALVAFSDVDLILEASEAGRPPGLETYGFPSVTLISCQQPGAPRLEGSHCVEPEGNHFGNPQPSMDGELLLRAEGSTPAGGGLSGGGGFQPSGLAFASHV
Method: as §1, §2

[7] = molecular target: T7, P2RY10 (Homo sapiens, UniProt O00398); experiment: NanoBRET screen HiBiT-P2RY10 in HEK293
T7 construct: purchased Promega (in-house HiBiT-GPCR construct library, NanoBRET)
T7 sequence (O00398 whole entry, one chain of several): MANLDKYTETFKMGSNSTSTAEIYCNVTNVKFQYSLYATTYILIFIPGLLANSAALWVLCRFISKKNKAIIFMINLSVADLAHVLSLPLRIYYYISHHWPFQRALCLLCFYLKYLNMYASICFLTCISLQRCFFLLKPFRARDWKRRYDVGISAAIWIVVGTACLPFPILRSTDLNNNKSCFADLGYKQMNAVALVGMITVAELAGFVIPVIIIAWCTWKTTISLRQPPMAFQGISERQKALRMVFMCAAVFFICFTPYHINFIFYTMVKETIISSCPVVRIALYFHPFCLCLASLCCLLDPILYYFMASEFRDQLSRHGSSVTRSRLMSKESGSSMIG
Method: as §1, §2

[8] = molecular target: T8, P2RY12 (Homo sapiens, UniProt Q9H244); experiment: NanoBRET screen HiBiT-P2RY12 in HEK293
T8 construct: purchased Promega (in-house HiBiT-GPCR construct library, NanoBRET)
T8 sequence (Q9H244 whole entry, one chain of several): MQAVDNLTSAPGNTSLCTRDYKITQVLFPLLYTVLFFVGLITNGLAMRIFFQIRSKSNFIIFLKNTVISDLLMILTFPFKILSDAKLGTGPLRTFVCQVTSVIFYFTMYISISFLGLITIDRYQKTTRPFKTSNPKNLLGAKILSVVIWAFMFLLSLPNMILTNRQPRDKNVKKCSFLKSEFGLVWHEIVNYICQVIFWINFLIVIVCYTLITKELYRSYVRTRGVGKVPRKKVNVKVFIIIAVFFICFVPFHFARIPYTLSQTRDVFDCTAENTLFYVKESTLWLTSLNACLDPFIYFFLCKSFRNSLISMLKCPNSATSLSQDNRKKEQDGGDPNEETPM
Method: as §1, §2

T1 sequence (Q9UBS5 15-961 limits assumed): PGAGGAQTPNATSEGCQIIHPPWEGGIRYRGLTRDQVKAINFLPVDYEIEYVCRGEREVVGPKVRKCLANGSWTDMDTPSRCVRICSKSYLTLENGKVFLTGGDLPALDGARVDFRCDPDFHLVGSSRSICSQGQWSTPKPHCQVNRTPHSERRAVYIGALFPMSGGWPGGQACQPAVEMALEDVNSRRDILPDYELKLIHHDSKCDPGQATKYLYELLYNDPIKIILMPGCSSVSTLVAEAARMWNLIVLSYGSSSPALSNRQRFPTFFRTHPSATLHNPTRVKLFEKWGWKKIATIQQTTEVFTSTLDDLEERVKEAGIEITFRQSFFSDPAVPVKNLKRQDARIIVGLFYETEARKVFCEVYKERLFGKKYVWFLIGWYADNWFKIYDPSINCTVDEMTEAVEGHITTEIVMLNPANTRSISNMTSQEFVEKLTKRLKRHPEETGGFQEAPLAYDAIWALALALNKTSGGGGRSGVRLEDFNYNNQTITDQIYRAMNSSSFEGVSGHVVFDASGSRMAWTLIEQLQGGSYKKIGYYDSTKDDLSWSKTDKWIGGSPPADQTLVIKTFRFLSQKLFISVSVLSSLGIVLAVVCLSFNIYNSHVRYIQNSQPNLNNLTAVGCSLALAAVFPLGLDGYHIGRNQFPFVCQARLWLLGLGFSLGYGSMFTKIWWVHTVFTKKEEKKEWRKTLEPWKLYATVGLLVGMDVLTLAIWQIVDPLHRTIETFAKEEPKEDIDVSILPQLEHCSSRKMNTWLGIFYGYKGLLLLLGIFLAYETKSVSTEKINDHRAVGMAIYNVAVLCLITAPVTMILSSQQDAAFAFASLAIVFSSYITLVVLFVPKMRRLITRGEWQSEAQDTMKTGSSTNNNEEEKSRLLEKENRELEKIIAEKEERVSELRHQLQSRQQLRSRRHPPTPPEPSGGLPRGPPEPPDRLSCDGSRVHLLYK

- NanoBRET Fold Response ([1]; GABBR1, 0.1μM): 1.05
- NanoBRET Fold Response ([1]; GABBR1, 1μM): 1.13
- NanoBRET Fold Response ([2]; HTR5A, 0.1μM): 0.97
- NanoBRET Fold Response ([2]; HTR5A, 1μM): 1.04
- NanoBRET Fold Response ([3]; MCHR1, 0.1μM): 1.00
- NanoBRET Fold Response ([3]; MCHR1, 1μM): 1.08
- NanoBRET Fold Response ([4]; FZD2, 0.1μM): 1.04
- NanoBRET Fold Response ([4]; FZD2, 1μM): 1.11
- NanoBRET Fold Response ([5]; 0.1μM): 1.28
- NanoBRET Fold Response ([5]; 1μM): 0.71
- NanoBRET Fold Response ([6]; LGR6, 0.1μM): 1.27
- NanoBRET Fold Response ([6]; LGR6, 1μM): 0.90
- NanoBRET Fold Response ([7]; P2RY10, 0.1μM): 1.35
- NanoBRET Fold Response ([7]; P2RY10, 1μM): 1.22
- NanoBRET Fold Response ([8]; P2RY12, 0.1μM): 3.11
- NanoBRET Fold Response ([8]; P2RY12, 1μM): 2.18
SMILES: CCOC(=O)c1cc(C#N)c(N2CCC(C(=O)NS(=O)(=O)Cc3ccccc3/C=C/C(=O)NCCNC(=O)CCc3ccc4n3[B-](F)(F)[N+]3=C(c5ccc[nH]5)C=CC3=C4)CC2)nc1C [AZD1283-1-NB590]

- NanoBRET Fold Response ([2]; HTR5A, other tracers/Aminopotentidine (unmodified), 0.1μM): 1.11
- NanoBRET Fold Response ([2]; HTR5A, other tracers/Aminopotentidine (unmodified), 1μM): 1.09
SMILES: N#CN/C(=N\CCNC(=O)c1ccc(N)cc1)NCCCOc1cccc(CN2CCCCC2)c1 [Aminopotentidine (unmodified)]

- NanoBRET Fold Response ([1]; GABBR1, tracer 0.1μM): 1.06
- NanoBRET Fold Response ([1]; GABBR1, tracer 1μM): 1.00
- NanoBRET Fold Response ([2]; HTR5A, tracer 0.1μM): 1.00
- NanoBRET Fold Response ([2]; HTR5A, tracer 1μM): 0.90
- NanoBRET Fold Response ([3]; MCHR1, tracer 0.1μM): 0.99
- NanoBRET Fold Response ([3]; MCHR1, tracer 1μM): 0.95
- NanoBRET Fold Response ([4]; FZD2, tracer 0.1μM): 1.08
- NanoBRET Fold Response ([4]; FZD2, tracer 1μM): 1.06
- NanoBRET Fold Response ([5]; tracer 0.1μM): 0.59
- NanoBRET Fold Response ([5]; tracer 1μM): 0.94
- NanoBRET Fold Response ([6]; LGR6, tracer 0.1μM): 0.96
- NanoBRET Fold Response ([6]; LGR6, tracer 1μM): 0.88
- NanoBRET Fold Response ([7]; P2RY10, tracer 0.1μM): 1.03
- NanoBRET Fold Response ([7]; P2RY10, tracer 1μM): 1.02
- NanoBRET Fold Response ([8]; P2RY12, tracer 0.1μM): 0.94
- NanoBRET Fold Response ([8]; P2RY12, tracer 1μM): 0.99
SMILES: N#CN=C(NCCCOc1cccc(CN2CCCCC2)c1)NCCNC(=O)CCOCCOCCOCCOCCNC(=O)CCc1ccc2n1[B-](F)(F)[N+]1=C(c3ccc[nH]3)C=CC1=C2 [Aminopotentidine-2-NB590]

SMILES: CN(C)CCC=C1c2ccccc2CCc2ccc(C(=O)NCCNC(=O)CCOCCOCCOCCOCCNC(=O)CCc3ccc4n3[B-](F)(F)[N+]3=C(c5ccc[nH]5)C=CC3=C4)cc21 [Amitriptyline-a-2-NB590]
- NanoBRET Fold Response ([1]; tracer at 0.1μM): 0.93
- NanoBRET Fold Response ([1]; tracer at 1μM): 0.91
- NanoBRET Fold Response ([2]; tracer at 0.1μM): 1.08
- NanoBRET Fold Response ([3]; tracer at 0.1μM): 1.01
- NanoBRET Fold Response ([3]; tracer at 1μM): 1.09
- NanoBRET Fold Response ([4]; tracer at 0.1μM): 1.04
- NanoBRET Fold Response ([4]; tracer at 1μM): 1.00
- NanoBRET Fold Response ([6]; tracer at 0.1μM): 0.93
- NanoBRET Fold Response ([6]; tracer at 1μM): 0.97
- NanoBRET Fold Response ([7]; tracer at 0.1μM): 1.09
- NanoBRET Fold Response ([7]; tracer at 1μM): 1.07
- NanoBRET Fold Response ([8]; tracer at 0.1μM): 1.14
- NanoBRET Fold Response ([8]; tracer at 1μM): 0.93

From paper PMC8151276, “An Integrated Approach toward NanoBRET Tracers for Analysis of GPCR Ligand Engagement” (Molecules, 2021)
